System: eye
Experiment: Acute non-GLP IVT ocular tolerability and toxicity study of sunitinib malate (free drug)
Type: in vivo, pigmented rabbits
Conditions: single bilateral IVT injection, up to 7 days
Experimental: An acute, non-GLP IVT study was conducted to evaluate the ocular tolerability and toxicity of sunitinib malate (free drug) for up to 7 days following a single IVT injection. Sunitinib malate was formulated in phosphate buffered saline and injected bilaterally (0.1 mL) at 0.125 or 1.25 mg per eye.

CCN(CC)CCNC(=O)c1c(C)[nH]c(/C=C2\C(=O)Nc3ccc(F)cc32)c1C [sunitinib malate]
no-observed-adverse-effect-level (NOAEL) dose: 0.125 mg/eye
